Literature values, collected in patent US20090312311A1, “COMBINATION OF ORGANIC COMPOUNDS” (priority 2006, published 2009).

Legend:
cardiac hypertrophy = conditions: transgenic mice that overexpress Hop; Kook et al. 2003
[1] = test system: hypertrophy induced by infusion of isoproterenol

## CC(/C=C/C(=O)NO)=C\[C@@H](C)C(=O)c1ccc(N(C)C)cc1 [trichostatin A]
Cardiac hypertrophy
  effect on cardiac hypertrophy: prevents cardiac hypertrophy
[1]
  effect on hypertrophy: attenuates hypertrophy
